Data reported in ChEMBL document CHEMBL1201862, “PubChem BioAssay data set” (2004).
Activity calls are given as the source filed them.

How the values were obtained:
Cytochrome P450 2D6 = Cytochrome P450 2D6 (Homo sapiens, UniProt P10635);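 note: CYP2D6 member of a cytochrome P450 panel assay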
Cytochrome P450 2C9 = Cytochrome P450 2C9 (Homo sapiens, UniProt P11712)
HEK293 = assay: inhibitors of LMP1-driven NF-kB reporter, dose response, cell-based, HEK293, luciferase, cherry-pick (AID 588343); format: functional; settings: Homo sapiens
[1] = cytotoxicity toward NIH3T3 fibroblasts, dose response, counter-screen, cell-based, ATP luminescence, mouse fibroblasts (AID 2010); format: functional;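 note: cells exposed to compound for about 90 hours before reading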
[2] = inhibitors of intracellular T. cruzi replication, confirmation, NIH3T3 host cells, beta-gal luminescence (AID 2044); format: functional, cell-based;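 note: intracellular parasites grown in NIH/3T3 mouse fibroblasts as host cells; luminescent beta-galactosidase reporter signal from transgenic T. cruzi replicating inside host cells; inhibitors lower the luminescence signal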
INS1 = assay: beta cell apoptosis inhibitors, cytokine rescue, dose response, luminescence, retest (AID 449756); format: functional, cell-based; settings: Rattus norvegicus;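 note: cell death triggered by IL-1 beta plus TNF-alpha plus IFN-gamma mixture; protective hits raise ATP signal compared with cytokine alone wells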
H9c2 = assay: cells; format: functional, cell-based; settings: Rattus norvegicus, H9c2, Myocardium;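 note: confirmatory concentration-response retest of ultra-high-throughput screening hits for modulation of myocardial damage; cell death induced by hydrogen peroxide oxidative stress; compound pretreatment for 60 min then peroxide exposure for 2 h; potency is for protecting the cells against peroxide damage rather than for killing them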
[3] = Luminescence Cell-Based Dose Retest to Confirm Inhibitors of Cancer Stem Cells. [Related pubchem assays (depositor defined):AID2717, AID2721]; format: functional; settings: Homo sapiens
Vero = assay: cells; format: functional; settings: Chlorocebus sabaeus
Cytochrome P450 3A4 = Cytochrome P450 3A4 (Homo sapiens, UniProt P08684);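 note: CYP3A4 tested as one member of a cytochrome P450 panel screen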
[4] = molecular target: Induced myeloid leukemia cell differentiation protein Mcl-1 (Homo sapiens, UniProt Q07820); format: functional
H4 = assay: Luminescence Cell-Based Dose Response HTS to Identify Activators of 5'UTR Stem-Loop Driven Prion Protein mRNA Translation in H4 Neuroglioblastoma Cells. [Related pubchem assays: 1829 (Project Summary), 1814 (Primary HTS)]; format: functional; settings: Homo sapiens
[5] = molecular target: T1, Sentrin-specific protease 7 (Homo sapiens, UniProt Q9BQF6); format: functional;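 note: Luminescence-based dose-response confirmation of ultra-high-throughput screening hits, measuring inhibition of SENP7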
T1 sequence (Q9BQF6 whole entry): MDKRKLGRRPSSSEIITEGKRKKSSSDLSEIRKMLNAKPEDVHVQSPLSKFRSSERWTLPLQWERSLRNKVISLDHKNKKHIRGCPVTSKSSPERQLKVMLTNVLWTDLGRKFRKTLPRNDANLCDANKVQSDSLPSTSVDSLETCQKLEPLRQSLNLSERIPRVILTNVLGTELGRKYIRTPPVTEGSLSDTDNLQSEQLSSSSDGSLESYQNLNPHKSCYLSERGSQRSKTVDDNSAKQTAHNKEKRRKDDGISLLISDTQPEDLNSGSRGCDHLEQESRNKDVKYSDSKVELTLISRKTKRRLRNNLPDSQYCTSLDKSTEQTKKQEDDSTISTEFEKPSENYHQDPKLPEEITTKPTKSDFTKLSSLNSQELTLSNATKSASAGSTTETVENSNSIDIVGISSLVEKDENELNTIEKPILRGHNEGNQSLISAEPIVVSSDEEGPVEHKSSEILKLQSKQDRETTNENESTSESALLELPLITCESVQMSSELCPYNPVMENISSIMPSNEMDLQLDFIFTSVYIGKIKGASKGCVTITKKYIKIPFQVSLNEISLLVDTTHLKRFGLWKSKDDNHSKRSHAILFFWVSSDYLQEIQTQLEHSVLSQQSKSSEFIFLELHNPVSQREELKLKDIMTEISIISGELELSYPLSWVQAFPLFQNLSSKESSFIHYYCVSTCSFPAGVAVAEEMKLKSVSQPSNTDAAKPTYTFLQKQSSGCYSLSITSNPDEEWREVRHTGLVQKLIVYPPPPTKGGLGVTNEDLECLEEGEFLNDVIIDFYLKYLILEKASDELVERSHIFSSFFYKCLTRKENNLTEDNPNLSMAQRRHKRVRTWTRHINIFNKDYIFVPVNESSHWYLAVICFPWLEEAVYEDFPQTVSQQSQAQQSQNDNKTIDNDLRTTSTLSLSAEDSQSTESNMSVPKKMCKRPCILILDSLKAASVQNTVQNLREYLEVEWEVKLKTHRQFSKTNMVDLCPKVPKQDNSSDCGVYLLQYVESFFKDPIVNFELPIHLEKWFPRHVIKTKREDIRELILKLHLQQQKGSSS

Caspase-3 = molecular target: T2, Caspase-3 (Homo sapiens, UniProt P42574); format: functional;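 note: Dose-response selectivity test against caspase-3 for candidate inhibitors of sentrin-specific proteases (SENPs)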
T2 sequence (P42574 whole entry): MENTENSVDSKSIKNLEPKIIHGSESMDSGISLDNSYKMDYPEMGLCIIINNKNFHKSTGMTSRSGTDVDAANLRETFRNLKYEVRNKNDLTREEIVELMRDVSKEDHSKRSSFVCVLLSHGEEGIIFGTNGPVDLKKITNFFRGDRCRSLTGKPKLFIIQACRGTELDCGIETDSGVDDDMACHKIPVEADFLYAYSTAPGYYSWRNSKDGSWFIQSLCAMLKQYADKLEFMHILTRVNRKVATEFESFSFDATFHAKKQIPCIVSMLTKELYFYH

[6] = Luminescence Cell-Based Dose Response to Identify Activators of Luciferase Translation or Activity in H4-C Neuroglioblastoma Cells. [Related pubchem assays: 1829 (Project Summary), 1814 (Primary HTS)]; format: functional
Fatty acid synthase [7] = molecular target: T3, Fatty acid synthase (Homo sapiens, UniProt P49327); assay: FAS thioesterase domain inhibitors, dose response, biochemical, endpoint fluorescence intensity, uHTS hits (AID 624327); format: functional;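 note: fluorescence from hydrolysis of an O-methyl fluorescein acyl ester substrate by the enzyme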
[8] = molecular target: T4, Sentrin-specific protease 6 (Homo sapiens, UniProt Q9GZR1); format: functional;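 note: Luminescence-based dose-response confirmatory assay of SENP6 inhibition, following up an ultra-high-throughput screen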
T4 sequence (Q9GZR1 whole entry): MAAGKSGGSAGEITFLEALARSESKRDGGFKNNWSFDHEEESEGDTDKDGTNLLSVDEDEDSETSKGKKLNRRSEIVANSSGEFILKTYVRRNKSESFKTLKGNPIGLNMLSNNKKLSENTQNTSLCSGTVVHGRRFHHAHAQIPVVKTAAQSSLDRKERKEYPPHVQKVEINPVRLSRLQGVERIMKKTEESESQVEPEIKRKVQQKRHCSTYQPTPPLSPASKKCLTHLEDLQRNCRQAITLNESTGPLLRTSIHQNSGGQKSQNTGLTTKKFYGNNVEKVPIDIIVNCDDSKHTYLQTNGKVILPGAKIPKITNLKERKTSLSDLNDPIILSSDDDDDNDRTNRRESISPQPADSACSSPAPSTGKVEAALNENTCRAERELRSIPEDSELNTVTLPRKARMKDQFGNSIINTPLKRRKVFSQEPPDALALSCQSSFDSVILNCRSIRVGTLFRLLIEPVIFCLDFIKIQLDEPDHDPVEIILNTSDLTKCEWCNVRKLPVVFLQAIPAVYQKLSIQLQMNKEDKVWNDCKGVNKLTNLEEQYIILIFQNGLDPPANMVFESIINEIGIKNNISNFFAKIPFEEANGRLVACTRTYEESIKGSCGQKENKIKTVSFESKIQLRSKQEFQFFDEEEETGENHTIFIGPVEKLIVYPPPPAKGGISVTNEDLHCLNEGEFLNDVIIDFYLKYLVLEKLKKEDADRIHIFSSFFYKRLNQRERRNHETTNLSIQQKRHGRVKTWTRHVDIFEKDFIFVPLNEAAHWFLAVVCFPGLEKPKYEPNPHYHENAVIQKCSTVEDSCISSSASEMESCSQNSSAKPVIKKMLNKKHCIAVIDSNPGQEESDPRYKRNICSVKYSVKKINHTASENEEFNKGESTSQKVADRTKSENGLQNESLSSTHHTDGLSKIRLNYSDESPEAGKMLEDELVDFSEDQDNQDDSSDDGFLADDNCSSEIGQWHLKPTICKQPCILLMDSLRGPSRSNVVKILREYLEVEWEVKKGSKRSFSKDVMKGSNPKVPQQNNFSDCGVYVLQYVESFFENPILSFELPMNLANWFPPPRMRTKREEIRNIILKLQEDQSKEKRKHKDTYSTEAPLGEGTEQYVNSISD

Fatty acid synthase [9] = molecular target: T3, Fatty acid synthase; assay: FAS thioesterase domain inhibitors, dose response, biochemical, kinetic fluorescence intensity (AID 624326); format: functional;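 note: rate of fluorescence rise from hydrolysis of a fluorogenic O-methyl fluorescein ester substrate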
[10] = Luminescence Cell-Based Dose Response to Identify Activators of 5'UTR Stem-Loop Driven Prion Protein mRNA Translation in H4-C Neuroglioblastoma Cells. [Related pubchem assays: 1829 (Project Summary), 1814 (Primary HTS)]; format: functional
[11] = Luminescence Cell-Based Dose Confirmation to Identify Activators of 5'UTR Stem-Loop Driven Alpha-Synuclein mRNA Translation in H4 Neuroglioblastoma Cells. [Related pubchem assays: 1829 (Project Summary), 1814 (Primary HTS)]; format: functional
[12] = tested on: Streptococcus sp. 'group A'; assay: growth inhibition of control SK(-) GAS strain, dose response, counter-screen for streptokinase expression inhibitor project, luminescence, kanamycin, BacTiterGlo, confirmation (AID 1900); format: functional, organism-based
[13] = molecular target: T5, Sentrin-specific protease 8 (Homo sapiens, UniProt Q96LD8); format: functional;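 note: luminescence read-out of SENP8 inhibition, dose-response confirmation following an ultra-high-throughput screen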
T5 sequence (Q96LD8 whole entry): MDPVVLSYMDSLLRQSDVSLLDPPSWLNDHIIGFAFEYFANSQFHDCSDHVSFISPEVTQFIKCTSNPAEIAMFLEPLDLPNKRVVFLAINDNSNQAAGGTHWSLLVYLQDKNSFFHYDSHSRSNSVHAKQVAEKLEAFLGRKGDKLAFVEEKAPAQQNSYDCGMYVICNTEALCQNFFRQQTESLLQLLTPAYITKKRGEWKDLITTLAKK

Streptococcus = assay: Group A Streptococcus viability loss, dose response, counter-screen for streptokinase expression inhibitor project, luminescence, BacTiterGlo (AID 1915); format: functional, organism-based;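 note: potency for reduction of bacterial viability or growth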
Cytochrome P450 1A2 = molecular target: T6, Cytochrome P450 1A2 (Homo sapiens, UniProt P05177);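 note: PubChem cytochrome P450 panel assay, CYP1A2 panel member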
T6 sequence (P05177 whole entry): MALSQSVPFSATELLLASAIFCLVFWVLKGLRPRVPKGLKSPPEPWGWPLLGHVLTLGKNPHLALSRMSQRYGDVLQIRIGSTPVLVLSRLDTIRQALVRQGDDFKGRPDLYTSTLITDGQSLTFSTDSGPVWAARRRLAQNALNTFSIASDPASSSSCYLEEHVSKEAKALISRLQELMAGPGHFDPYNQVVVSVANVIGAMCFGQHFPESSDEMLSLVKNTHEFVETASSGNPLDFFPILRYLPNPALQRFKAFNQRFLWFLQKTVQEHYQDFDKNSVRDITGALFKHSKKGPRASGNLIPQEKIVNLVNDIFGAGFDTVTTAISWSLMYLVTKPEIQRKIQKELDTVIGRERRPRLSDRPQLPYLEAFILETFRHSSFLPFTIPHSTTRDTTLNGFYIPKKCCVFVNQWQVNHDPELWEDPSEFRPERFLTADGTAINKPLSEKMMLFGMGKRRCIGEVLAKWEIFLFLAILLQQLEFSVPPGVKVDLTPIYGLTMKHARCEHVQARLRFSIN

Cytochrome P450 2C19 = Cytochrome P450 2C19 (Homo sapiens, UniProt P33261); assay: Cytochrome panel assay with activity outcomes. Panel member name: p450-cyp2c19 Compounds with AC50 equal or less than 10 uM are considered active; format: functional; settings: read-out: AC50
Cytochrome P450 2C19, sequence (P33261 whole entry): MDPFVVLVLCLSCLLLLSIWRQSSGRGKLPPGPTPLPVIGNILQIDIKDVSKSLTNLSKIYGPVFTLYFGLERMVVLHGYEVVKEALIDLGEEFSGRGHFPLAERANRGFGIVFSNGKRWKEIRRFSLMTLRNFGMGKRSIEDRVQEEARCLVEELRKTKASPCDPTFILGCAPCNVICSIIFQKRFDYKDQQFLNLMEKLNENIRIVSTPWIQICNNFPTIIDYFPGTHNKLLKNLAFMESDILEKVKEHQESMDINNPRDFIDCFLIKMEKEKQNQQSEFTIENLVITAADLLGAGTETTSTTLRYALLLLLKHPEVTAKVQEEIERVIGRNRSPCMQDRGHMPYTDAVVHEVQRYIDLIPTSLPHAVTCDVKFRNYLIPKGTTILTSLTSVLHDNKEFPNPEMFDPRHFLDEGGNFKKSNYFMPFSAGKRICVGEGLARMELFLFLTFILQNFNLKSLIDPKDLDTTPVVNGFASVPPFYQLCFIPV

Cytochrome P450 2C9, sequence (P11712 whole entry): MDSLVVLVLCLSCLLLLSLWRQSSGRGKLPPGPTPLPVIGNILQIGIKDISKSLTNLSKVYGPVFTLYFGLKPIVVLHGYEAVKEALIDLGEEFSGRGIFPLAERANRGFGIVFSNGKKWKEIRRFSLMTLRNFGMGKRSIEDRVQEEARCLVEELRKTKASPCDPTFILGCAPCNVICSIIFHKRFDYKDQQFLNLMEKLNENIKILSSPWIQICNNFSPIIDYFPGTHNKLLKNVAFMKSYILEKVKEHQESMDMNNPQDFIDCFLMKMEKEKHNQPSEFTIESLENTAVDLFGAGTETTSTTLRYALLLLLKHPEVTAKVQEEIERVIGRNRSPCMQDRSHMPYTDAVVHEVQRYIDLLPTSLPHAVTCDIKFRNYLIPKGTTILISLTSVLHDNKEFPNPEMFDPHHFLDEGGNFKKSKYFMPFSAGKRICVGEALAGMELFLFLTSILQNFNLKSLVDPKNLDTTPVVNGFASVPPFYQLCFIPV
T3 sequence (P49327 whole entry, the tested form may be a part): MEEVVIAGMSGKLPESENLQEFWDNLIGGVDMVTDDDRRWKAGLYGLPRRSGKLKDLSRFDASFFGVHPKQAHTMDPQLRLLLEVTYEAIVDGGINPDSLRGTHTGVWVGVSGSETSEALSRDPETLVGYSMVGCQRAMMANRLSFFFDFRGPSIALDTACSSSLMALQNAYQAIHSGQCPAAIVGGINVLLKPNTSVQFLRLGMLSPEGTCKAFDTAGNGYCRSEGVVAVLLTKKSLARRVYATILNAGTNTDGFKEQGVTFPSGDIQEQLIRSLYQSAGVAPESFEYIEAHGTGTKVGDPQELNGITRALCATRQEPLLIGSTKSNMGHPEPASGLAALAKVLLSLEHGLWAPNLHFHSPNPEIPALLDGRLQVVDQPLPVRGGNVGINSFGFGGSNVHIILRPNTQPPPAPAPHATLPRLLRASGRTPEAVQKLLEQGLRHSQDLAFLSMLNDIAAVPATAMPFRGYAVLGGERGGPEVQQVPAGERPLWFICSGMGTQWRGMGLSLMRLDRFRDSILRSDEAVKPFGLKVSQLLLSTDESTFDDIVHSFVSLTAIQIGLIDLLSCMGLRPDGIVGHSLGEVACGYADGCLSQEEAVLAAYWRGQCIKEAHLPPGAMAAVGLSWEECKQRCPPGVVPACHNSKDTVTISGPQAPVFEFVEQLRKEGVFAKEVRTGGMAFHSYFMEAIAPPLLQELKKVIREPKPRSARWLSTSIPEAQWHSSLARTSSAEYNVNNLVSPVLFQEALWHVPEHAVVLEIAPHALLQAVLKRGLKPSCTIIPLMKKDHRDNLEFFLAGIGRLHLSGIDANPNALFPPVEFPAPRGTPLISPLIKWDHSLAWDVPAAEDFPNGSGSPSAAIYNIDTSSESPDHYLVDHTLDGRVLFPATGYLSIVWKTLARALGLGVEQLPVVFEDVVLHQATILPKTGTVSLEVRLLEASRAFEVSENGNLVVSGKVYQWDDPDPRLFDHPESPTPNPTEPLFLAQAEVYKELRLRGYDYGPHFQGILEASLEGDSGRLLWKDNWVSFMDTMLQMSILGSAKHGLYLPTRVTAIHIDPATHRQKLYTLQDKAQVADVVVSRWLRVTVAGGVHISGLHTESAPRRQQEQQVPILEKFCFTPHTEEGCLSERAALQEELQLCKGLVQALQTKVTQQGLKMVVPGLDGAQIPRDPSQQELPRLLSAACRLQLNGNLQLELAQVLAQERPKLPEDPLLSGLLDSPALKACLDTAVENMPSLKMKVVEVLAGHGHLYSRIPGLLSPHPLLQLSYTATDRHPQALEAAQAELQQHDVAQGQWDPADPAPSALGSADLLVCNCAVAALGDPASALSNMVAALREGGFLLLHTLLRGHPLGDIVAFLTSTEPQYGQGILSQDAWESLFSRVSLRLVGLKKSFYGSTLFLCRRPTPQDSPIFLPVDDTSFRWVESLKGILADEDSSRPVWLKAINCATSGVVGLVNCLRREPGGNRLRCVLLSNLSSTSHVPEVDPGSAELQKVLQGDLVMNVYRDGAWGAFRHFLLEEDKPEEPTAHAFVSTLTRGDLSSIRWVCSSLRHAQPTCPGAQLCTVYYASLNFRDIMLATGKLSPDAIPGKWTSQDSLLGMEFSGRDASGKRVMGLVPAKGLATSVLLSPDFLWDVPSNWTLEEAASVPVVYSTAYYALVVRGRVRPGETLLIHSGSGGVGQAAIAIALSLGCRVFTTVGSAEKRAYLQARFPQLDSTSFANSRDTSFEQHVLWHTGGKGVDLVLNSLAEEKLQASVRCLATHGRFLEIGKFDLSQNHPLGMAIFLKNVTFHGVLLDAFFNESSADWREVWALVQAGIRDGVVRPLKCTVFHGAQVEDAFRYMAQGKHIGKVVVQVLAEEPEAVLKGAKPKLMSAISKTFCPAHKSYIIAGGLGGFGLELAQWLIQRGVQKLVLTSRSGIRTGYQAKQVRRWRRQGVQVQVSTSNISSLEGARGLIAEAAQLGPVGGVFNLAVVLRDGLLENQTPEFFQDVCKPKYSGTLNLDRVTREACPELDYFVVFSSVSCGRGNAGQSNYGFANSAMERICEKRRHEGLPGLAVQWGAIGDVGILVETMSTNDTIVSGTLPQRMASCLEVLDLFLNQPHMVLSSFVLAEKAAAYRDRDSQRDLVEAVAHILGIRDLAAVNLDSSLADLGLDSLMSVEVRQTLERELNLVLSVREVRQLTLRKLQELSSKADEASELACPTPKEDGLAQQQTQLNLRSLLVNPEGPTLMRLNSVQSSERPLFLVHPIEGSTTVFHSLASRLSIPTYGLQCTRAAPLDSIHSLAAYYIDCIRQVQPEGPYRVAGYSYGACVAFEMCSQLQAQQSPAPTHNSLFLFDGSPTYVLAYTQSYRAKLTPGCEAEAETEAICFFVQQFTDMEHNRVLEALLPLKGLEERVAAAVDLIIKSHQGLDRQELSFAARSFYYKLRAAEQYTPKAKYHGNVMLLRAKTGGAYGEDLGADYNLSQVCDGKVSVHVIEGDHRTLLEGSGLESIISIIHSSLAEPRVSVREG
Induced myeloid leukemia cell differentiation protein Mcl-1, sequence (Q07820 whole entry): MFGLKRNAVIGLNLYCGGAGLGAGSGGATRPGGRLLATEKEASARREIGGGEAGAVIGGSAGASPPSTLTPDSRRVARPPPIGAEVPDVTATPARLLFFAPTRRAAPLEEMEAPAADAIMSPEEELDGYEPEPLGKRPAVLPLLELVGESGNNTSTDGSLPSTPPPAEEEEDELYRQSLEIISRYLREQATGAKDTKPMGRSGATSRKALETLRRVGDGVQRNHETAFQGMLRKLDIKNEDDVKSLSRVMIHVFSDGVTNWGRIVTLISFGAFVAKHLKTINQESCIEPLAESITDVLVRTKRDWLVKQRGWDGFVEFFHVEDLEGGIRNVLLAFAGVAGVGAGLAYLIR
Cytochrome P450 3A4, sequence (P08684 whole entry): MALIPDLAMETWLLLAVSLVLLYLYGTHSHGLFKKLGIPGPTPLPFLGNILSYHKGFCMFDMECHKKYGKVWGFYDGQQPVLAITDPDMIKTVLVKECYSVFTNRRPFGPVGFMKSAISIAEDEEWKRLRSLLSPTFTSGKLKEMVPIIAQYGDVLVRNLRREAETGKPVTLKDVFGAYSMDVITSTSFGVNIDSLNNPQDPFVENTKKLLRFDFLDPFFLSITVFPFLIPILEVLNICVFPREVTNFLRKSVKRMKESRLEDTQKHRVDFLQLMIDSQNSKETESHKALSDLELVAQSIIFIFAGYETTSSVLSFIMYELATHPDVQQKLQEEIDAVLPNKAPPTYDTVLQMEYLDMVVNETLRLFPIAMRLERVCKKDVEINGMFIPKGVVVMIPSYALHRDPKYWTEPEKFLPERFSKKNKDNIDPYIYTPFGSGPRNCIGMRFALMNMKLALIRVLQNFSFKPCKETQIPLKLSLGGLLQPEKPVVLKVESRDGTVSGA
Cytochrome P450 2D6, sequence (P10635 whole entry): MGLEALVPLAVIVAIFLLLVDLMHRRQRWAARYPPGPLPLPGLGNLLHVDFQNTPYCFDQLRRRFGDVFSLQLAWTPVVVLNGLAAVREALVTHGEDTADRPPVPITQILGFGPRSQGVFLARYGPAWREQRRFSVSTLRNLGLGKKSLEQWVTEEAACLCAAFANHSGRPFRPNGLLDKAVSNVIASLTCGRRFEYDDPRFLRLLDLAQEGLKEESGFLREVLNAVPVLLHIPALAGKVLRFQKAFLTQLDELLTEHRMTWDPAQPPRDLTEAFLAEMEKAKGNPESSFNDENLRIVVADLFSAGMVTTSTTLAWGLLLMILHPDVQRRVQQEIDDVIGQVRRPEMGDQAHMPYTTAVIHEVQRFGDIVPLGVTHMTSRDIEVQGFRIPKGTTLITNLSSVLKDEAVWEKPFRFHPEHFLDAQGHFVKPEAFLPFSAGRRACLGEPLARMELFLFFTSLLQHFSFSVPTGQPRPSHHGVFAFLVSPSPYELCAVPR

For `Cn1c(SCC(=O)N2CCN(S(=O)(=O)c3ccccc3)CC2)nc2ccccc21`, the AC50 (Cytochrome P450 2D6) was 14.1 µM (inconclusive) and the AC50 (Cytochrome P450 2C9) was “inconclusive”.
In the case of `Cc1nc2c(-c3ccc(Cl)cc3)c(C)nn2c(O)c1Cc1ccccc1`, the AC50 (HEK293) is reported as 9.26 µM (active), the EC50 [1] is reported as 2.97 µM (active) and the EC50 [2] is reported as 0.938 µM (active). For the same compound, the AC50 (INS1) was 2.5 µM (active).
In the case of `O=C(CSC1=NNC(c2ccccn2)S1)Nc1cccc(Cl)c1` (centres undefined), the IC50 (H9c2) is reported as > 79 µM (inactive).
For `Cc1cccc(NC(=O)c2[nH]cnc2C(=O)NCCCNC(=O)c2nc[nH]c2C(=O)Nc2cccc(C)c2)c1`, the AC50 [3] was 10.6 µM (active) and the IC50 (H9c2) was 26.2 µM (active).
With `COc1cc2ccnc(C=O)c2cc1OC` the IC50 (H9c2) was 14.5 µM (active) and the CC50 (Vero) was > 25 µM (active).
In the case of `CCN(CC)CCOC(=O)c1cc(Cl)c(N)cc1OC`, the AC50 (Cytochrome P450 3A4) is reported as 31.6 µM (inconclusive) and the AC50 (Cytochrome P450 2C9) is reported as “inconclusive”.
With `O=C(O)c1ccc(N/N=C/c2ccc(-c3cc(Cl)ccc3Cl)o2)cc1` the IC50 [4] was 2.17 µM (active), the EC50 (H4) was < 0.1 µM (active) and the IC50 [5] was > 100 µM (inactive). The IC50 (Caspase-3) was > 100 µM (inactive), the EC50 [6] was 0.482 µM (active) and the IC50 (Fatty acid synthase [7]) was 3.61 µM (active). The IC50 [8] was > 100 µM (inactive), the IC50 (Fatty acid synthase [9]) was 4.39 µM (active) and the EC50 [10] was 0.384 µM (active). The EC50 [11] was 0.121 µM (active), the EC50 [12] was 2.44 µM (active) and the IC50 [13] was > 100 µM (inactive). For the same compound, the EC50 (Streptococcus) was 2.61 µM (active).
For `C/C(CC(=O)NCc1ccco1)=N\NC(=O)Cc1cccc2ccccc12`, the AC50 (Cytochrome P450 1A2) was 12.6 µM (inconclusive), the AC50 (Cytochrome P450 2C19) was 25.1 µM (inconclusive) and the AC50 (Cytochrome P450 2C9) was “inconclusive”.
